Measured values taken from the supplement of paper PMC10307832.

Legend:
Assay in all cases: relative viability (nuclei count vs DMSO), 5 days (fraction); higher = more cells survive
Alisertib + Luminespib = compound: COc1cc(Nc2ncc3c(n2)-c2ccc(Cl)cc2C(c2c(F)cccc2OC)=NC3)ccc1C(=O)O [Alisertib] + CCNC(=O)c1noc(-c2cc(C(C)C)c(O)cc2O)c1-c1ccc(CN2CCOCC2)cc1 [Luminespib] (partner 0.01 µM)
Method in brief: (§1)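 Relative viability equals treated-well nuclei counts divided by vehicle-well nuclei counts. Counts came from 4× images of lung cancer cell lines grown in 1536-well plates for 5 days after pin-tool dosing on the day after seeding. Dosing used one drug alone or a fixed anchor-drug dose plus five library-drug doses (not always all listed) in √10 steps, and values are medians of duplicate plates.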

Alisertib + Lapatinib = compound: COc1cc(Nc2ncc3c(n2)-c2ccc(Cl)cc2C(c2c(F)cccc2OC)=NC3)ccc1C(=O)O [Alisertib] + CS(=O)(=O)CCNCc1ccc(-c2ccc3ncnc(Nc4ccc(OCc5cccc(F)c5)c(Cl)c4)c3c2)o1 [Lapatinib] (partner 2 µM)
Method in brief: as §1

Alisertib + Decitabine = compound: COc1cc(Nc2ncc3c(n2)-c2ccc(Cl)cc2C(c2c(F)cccc2OC)=NC3)ccc1C(=O)O [Alisertib] + Nc1ncn([C@H]2C[C@H](O)[C@@H](CO)O2)c(=O)n1 [Decitabine] (partner 2 µM)
Method in brief: as §1

Alisertib + Olaparib = compound: COc1cc(Nc2ncc3c(n2)-c2ccc(Cl)cc2C(c2c(F)cccc2OC)=NC3)ccc1C(=O)O [Alisertib] + O=C(c1cc(Cc2n[nH]c(=O)c3ccccc23)ccc1F)N1CCN(C(=O)C2CC2)CC1 [Olaparib] (partner 8 µM)
Method in brief: as §1

Cell Line	relative viability (Alisertib + Luminespib; first compound 0.005 µM)	relative viability (Alisertib + Luminespib; first compound 0.01581 µM)	relative viability (Alisertib + Luminespib; first compound 0.05 µM)	relative viability (Alisertib + Luminespib; first compound 0.1581 µM)	relative viability (Alisertib + Luminespib; first compound 0.5 µM)	relative viability (Alisertib + Lapatinib; first compound 0.005 µM)	relative viability (Alisertib + Lapatinib; first compound 0.01581 µM)	relative viability (Alisertib + Lapatinib; first compound 0.05 µM)	relative viability (Alisertib + Lapatinib; first compound 0.1581 µM)	relative viability (Alisertib + Lapatinib; first compound 0.5 µM)	relative viability (Alisertib + Decitabine; first compound 0.005 µM)	relative viability (Alisertib + Decitabine; first compound 0.01581 µM)	relative viability (Alisertib + Decitabine; first compound 0.05 µM)	relative viability (Alisertib + Decitabine; first compound 0.1581 µM)	relative viability (Alisertib + Decitabine; first compound 0.5 µM)	relative viability (Alisertib + Olaparib; first compound 0.005 µM)	relative viability (Alisertib + Olaparib; first compound 0.01581 µM)	relative viability (Alisertib + Olaparib; first compound 0.05 µM)	relative viability (Alisertib + Olaparib; first compound 0.1581 µM)	relative viability (Alisertib + Olaparib; first compound 0.5 µM)
COR-L23	0.585	0.568	0.303	0.0956	0.0981	0.929	0.759	0.47	0.165	0.124	0.422	0.419	0.307	0.146	0.118	0.304	0.298	0.183	0.137	0.101
NCI-H1944	0.778	0.676	0.541	0.411	0.15	0.769	0.829	0.764	0.36	0.188	0.401	0.436	0.324	0.266	0.186	0.402	0.381	0.318	0.201	0.178
NCI-H2405	0.735	0.619	0.745	0.356	0.285	1.03	0.873	0.932	0.295	0.272	0.648	0.748	0.632	0.39	0.277	0.715	0.787	0.794	0.351	0.251
SW 1573	0.28	0.139	0.106	0.0766	0.102	1.15	0.939	0.552	0.345	0.203	0.419	0.338	0.212	0.125	0.109	0.486	0.294	0.209	0.136	0.115
EMC-BAC-2	1.09	0.967	0.395	0.292	0.23	0.764	0.813	0.671	0.267	0.236	0.849	0.694	0.445	0.343	0.291	0.452	0.356	0.291	0.294	0.214
NCI-H1650	0.19	0.194	0.171	0.196	0.177	0.768	0.222	0.203	0.175	0.228	0.336	0.326	0.2	0.162	0.189	0.813	0.61	0.16	0.163	0.204
NCI-H647	0.151	0.132	0.0794	0.0983	0.0961	0.801	0.62	0.275	0.085	0.058	0.286	0.256	0.137	0.129	0.0775	0.367	0.278	0.086	0.0609	0.0531
LCLC-97TM1	0.787	0.601	0.318	0.177	0.12	0.405	0.723	0.623	0.262	0.126	0.235	0.168	0.114	0.115	0.144	0.332	0.306	0.102	0.0999	0.0824
H3255	0.753	0.841	0.522	0.259	0.212	0.277	0.256	0.269	0.169	0.176	0.602	0.467	0.396	0.241	0.143	0.547	0.566	0.385	0.292	0.24
LXF-289	0.455	0.325	0.16	0.0792	0.142	0.743	0.654	0.666	0.168	0.166	0.325	0.352	0.183	0.154	0.146	0.757	0.593	0.113	0.101	0.131
NCI-H596	0.839	0.977	1.05	0.505	0.412		1	1.16	0.63	0.433	1.07	1.01	1.01	0.708	0.505	0.779	0.773	0.627	0.522	0.254
LC-2-ad	0.892	0.435	0.39	0.392	0.32	0.681	0.465	0.244	0.152	0.118	0.736	0.673	0.442	0.263	0.23	0.642	0.523	0.211	0.245	0.192
SK-MES-1	0.723	0.4	0.273	0.144	0.17	0.468	0.508	0.411	0.263	0.219	0.373	0.346	0.225	0.158	0.167	0.594	0.614	0.351	0.192	0.168
A-427	0.916	0.576	0.243	0.141	0.209	0.869	0.931	0.853	0.185	0.142	0.52	0.442	0.233	0.211	0.211	0.65	0.563	0.204	0.177	0.227
NCI-H322M	0.84	0.671	0.475	0.37	0.452	0.564	0.616	0.548	0.296	0.315	0.714	0.654	0.482	0.425	0.48	0.77	0.686	0.565	0.459	0.488
NCI-H1975	0.199	0.23	0.213	0.177	0.168	0.78	0.808	0.457	0.234	0.174	0.32	0.359	0.142	0.191	0.153	0.68	0.627	0.347	0.234	0.163

Cell Line	relative viability (Alisertib + Luminespib; first compound 0.005 µM)	relative viability (Alisertib + Luminespib; first compound 0.01581 µM)	relative viability (Alisertib + Luminespib; first compound 0.05 µM)	relative viability (Alisertib + Luminespib; first compound 0.1581 µM)	relative viability (Alisertib + Luminespib; first compound 0.5 µM)	relative viability (Alisertib + Lapatinib; first compound 0.005 µM)	relative viability (Alisertib + Lapatinib; first compound 0.01581 µM)	relative viability (Alisertib + Lapatinib; first compound 0.05 µM)	relative viability (Alisertib + Lapatinib; first compound 0.1581 µM)	relative viability (Alisertib + Lapatinib; first compound 0.5 µM)	relative viability (Alisertib + Decitabine; first compound 0.005 µM)	relative viability (Alisertib + Decitabine; first compound 0.01581 µM)	relative viability (Alisertib + Decitabine; first compound 0.05 µM)	relative viability (Alisertib + Decitabine; first compound 0.1581 µM)	relative viability (Alisertib + Decitabine; first compound 0.5 µM)	relative viability (Alisertib + Olaparib; first compound 0.005 µM)	relative viability (Alisertib + Olaparib; first compound 0.01581 µM)	relative viability (Alisertib + Olaparib; first compound 0.05 µM)	relative viability (Alisertib + Olaparib; first compound 0.1581 µM)	relative viability (Alisertib + Olaparib; first compound 0.5 µM)
NCI-H1437	1.01	0.919	0.707	0.462	0.237	0.729	0.576	0.45	0.218	0.13	0.5	0.519	0.439	0.27	0.209	0.585	0.47	0.383	0.257	0.179
NCI-H2009	0.971	0.972	0.395	0.292	0.264	0.863	0.76	0.355	0.255	0.319	0.338	0.388	0.292	0.194	0.168	0.645	0.689	0.275	0.291	0.148
NCI-H1651	0.81	0.782	0.306	0.263	0.169	0.716	0.589	0.434	0.192	0.193	0.557	0.433	0.339	0.182	0.161	0.166	0.157	0.12	0.112	0.126
NCI-H1666	0.879	0.801	0.639	0.471	0.379	0.672	0.451	0.436	0.28	0.236	0.785	0.63	0.615	0.537	0.441	0.739	0.739	0.706	0.629	0.511
NCI-H1734	0.172	0.214	0.149	0.146	0.132	0.905	0.746	0.404	0.264	0.175	0.497	0.466	0.324	0.24	0.177	0.591	0.531	0.289	0.315	0.172
EPLC-272H	0.275	0.166	0.122	0.112	0.134	0.756	0.612	0.846	0.152	0.112	0.344	0.363	0.295	0.141	0.152	0.671	0.471	0.293	0.0899	0.116
NCI-H2023	0.807	0.671	0.321	0.127	0.0912	0.848	0.602	0.41	0.135	0.0899	0.252	0.193	0.145	0.109	0.0849	0.448	0.456	0.27	0.134	0.101
BEN	0.309	0.161	0.133	0.115	0.141	0.707	0.585	0.261	0.203	0.221	0.607	0.51	0.304	0.363	0.325	0.983	0.917	0.295	0.269	0.341
COR-L 105	0.773	0.685	0.56	0.382	0.252	0.322	0.413	0.319	0.223	0.263	0.633	0.698	0.481	0.349	0.324	0.689	0.641	0.502	0.498	0.311
ABC-1			0.491	0.366	0.136	1.22	1.1	1.05	0.91	0.616	1.12	0.915	0.869	0.598	0.33	0.534	0.708	0.677	0.555	0.432
HCC-15	0.327	0.371	0.167	0.108	0.128	0.746	0.671	0.392	0.122	0.109	0.541	0.316	0.19	0.13	0.139	0.689	0.444	0.191	0.165	0.145
NCI-H2170	0.518	0.777	0.317	0.318	0.207	0.268	0.25	0.275	0.221	0.187	0.452	0.448	0.3	0.272	0.147	0.601	0.509	0.307	0.206	0.163
RERF-LC-KJ	1.24	0.81	0.342	0.248	0.312	0.844	0.713	0.673	0.318	0.201	0.731	0.443	0.258	0.173	0.247	0.883	0.687	0.25	0.223	0.251
NCI-H1993	0.891	0.791	0.558	0.456	0.492	0.81	0.694	0.537	0.539	0.5	0.356	0.561	0.539	0.383	0.356	1.09	0.995	0.682	0.483	0.433
NCI-H358	0.321	0.243	0.133	0.114	0.105	0.389	0.434	0.211	0.177	0.161	0.222	0.186	0.121	0.086	0.098	0.529	0.284	0.117	0.111	0.12
NCI-H1915	0.684	0.452	0.151	0.148	0.185	0.787	0.821	0.606	0.305	0.253	0.257	0.249	0.197	0.198	0.176	0.218	0.186	0.142	0.138	0.129
